Laboratory results as given in patent publication US8034799B2, “Preventing and/or treating cardiovascular disease and/or associated heart failure” (Philera New Zealand Limited, priority 2002, dated 2011).

Test system: diabetic (STZ) and nondiabetic male Wistar rats
Text: Nondiabetic animals received an equivalent volume of saline.
All animals were fasted overnight prior to surgery but continued to have ad libitum access to deionized water. […] The femoral artery and vein were cannulated with a solid-state blood pressure transducer (Mikrotip™ 1.4F, Millar Instruments, Texas, USA) and a saline filled PE 50 catheter respectively. The ureters were exposed via a midline abdominal incision, cannulated using polyethylene catheters (external diameter 0.9 mm, internal diameter 0.5 mm) and the wound sutured closed. The trachea was cannulated and the animal ventilated at 70-80 breaths·min^−1 with air supplemented with O2 (Pressure Controlled Ventilator, Kent Scientific, Connecticut, USA). The respiratory rate and end-tidal pressure (10-15 cm H2O) were adjusted to maintain end-tidal CO2 at 35-40 mm Hg (SC-300 CO2 Monitor, Pryon Corporation, Wisconsin, USA). Body temperature was maintained at 37° C. throughout surgery and the experiment by a heating pad. Estimated fluid loss was replaced with intravenous administration of 154 mmol·l^−1 NaCl solution at a rate of 5 ml·kg^−1·h^−1.
Following surgery and a 20 min stabilization period, the experimental protocol was started. Trientine was administered intravenously over 60 s in hourly doses of increasing concentration (0.1, 1.0, 10 and 100 mg·kg^−1 in 75 μl saline followed by 125 μl saline flush). Control animals received an equivalent volume of saline. Urine was collected in 15 min aliquots throughout the experiment in pre-weighed polyethylene epindorph tubes. At the end of the experiment a terminal blood sample was taken by cardiac puncture and the separated serum stored at −80° C. until future analysis. Hearts were removed through a rapid mid-sternal thoracotomy and processed as described below.
Instrumentation: A Perkin Elmer (PE) Model 3100 Atomic Absorption Spectrophotometer equipped with a PE HGA-600 Graphite Furnace and PE AS-60 Furnace Autosampler was used for Cu and Fe determinations in urine. Deuterium background correction was employed. A Cu or Fe hollow-cathode lamp (Perkin Elmer Corporation) was used and operated at either 10 W (Cu) or 15 W (Fe). The 324.8 nm atomic line was used for Cu and the 248.3 nm atomic line for Fe. The slit width for both Cu and Fe was 0.7 nm. Pyrolytically coated graphite tubes were used for all analyses. The injection volume was 20 μL. A typical graphite furnace temperature program is shown below.
Urine: Urine was collected in pre-weighed 1.5 ml micro test tubes (eppendorf). After reweighing, the urine specimens were centrifuged and the supernatant diluted 25:1 with 0.02 M 69% Aristar grade HNO3. The sample was stored at 4° C. prior to GF-AAS analysis. If it was necessary to store a sample for a period in excess of 2 weeks, it was frozen and kept at −20° C.
Statistical analyses were as follows: All values are expressed as mean±SEM and P values <0.05 were considered statistically significant. Student's unpaired t-test was initially used to test for weight and glucose differences between the diabetic and control groups.

NCCNCCNCCN [trientine, N,N′-Bis(2-aminoethyl)-1,2-ethanedi-amine]
copper excretion versus saline, mixed linear model (all dose levels): significantly higher excretion of copper
greater iron excretion per gram of body weight in diabetic than nondiabetic animals (animals receiving trientine): not evident
total iron excretion versus saline (both diabetic and nondiabetic animals): not different
total copper excreted over the entire duration of the experiment versus saline controls (both nondiabetic and diabetic animals): significantly increased
increase of urine excretion versus equivalent volume of saline (diabetic animals, 100 mg·kg^−1 i.v.): not seen
iron excretion (μg), saline versus drug (diabetic animals, at most doses): greater in animals administered saline than in those administered drug
diabetes x drug interaction effect on copper excretion, mixed linear model (dose levels of 1.0 mg·kg^−1 and above): significant
total copper per gram of body weight, diabetic versus nondiabetic animals receiving drug (entire experiment): excreted more total copper per gram of body weight
copper excretion per gram of body weight, diabetic versus nondiabetic animals (in response to each dose of drug): significantly greater copper excretion per gram of body weight
greater total iron excretion per gram of body weight in diabetic than nondiabetic animals (in response to trientine): not seen
urine excretion versus equivalent volume of saline (nondiabetic animals, 100 mg·kg^−1 i.v.): increased urine excretion
